Patent US8653043B2, “Enhanced neoglycosides through neoglycosylation and methods of use thereof” (Wisconsin Alumni Research Foundation, priority 2009, dated 2014)

What was measured:
human cancer cell lines = test: Cytotoxicity assay (calcein AM / CellTiter-Glo) in carcinoma cell lines; assay type: cell-based; conditions: for potency improvement of amide-linked versus ester-linked neoglycoside: ABA compound compared with ester analog bearing the same sugar; for improvement of cytotoxic activity over the parent natural product: versus parent 1, breast, colorectal, lung and prostate carcinoma lines; for cytotoxic potency compared to parent 1: in one or more cell lines, comparison with betulinic acid (1)
Experimental: The cytoxicity of the library members was assessed in seven human cancer cell lines representing a broad range of carcinomas including breast, colorectal, CNS, lung and prostate.
The cytoxicity of ABA1-5 was evaluated in human cell lines of breast, colorectal, lung and prostate carcinomas.
Testing was performed by the Keck-UWCCC Small Molecule Screening Facility (Madison, Wis.). Carcinoma cell lines were maintained and harvested as previously reported, along with compound handling and assay set up.^21 Cells were plated in 50 μL volumes in 384-well clear bottom tissue culture plates. Serial dilutions of 30 mM DMSO compound stock solutions were done in 96-well plates using a BioTek Precision XS liquid handler (Winooski, Vt.) to a concentration 100× greater than that of the most dilute assay. Final dilutions were performed in a 384-well plate in quadruplicate using a Beckman-Coulter Biomek FX liquid handler with a 384 channel pipetting head (Fullerton, Calif.) and were stored at −20° C. when not in use. Compounds were then added to the culture plates by the Biomek FX handler and were incubated at 37° C. for 72 h. The calcein AM reagent (acetoxymethyl ester; 30 μL, 10 μM) was then added, the cells were incubated for 30 m at 37° C., and plates were read for fluorescent emission (535 nm). Cell titer-glo reagent (15 μL; Promega Corp., Madison, Wis.) was added and the plates incubated for 10 m at room temperature with gentle agitation to lyse the cells. Each plate was reexamined for luminescence to verify inhibition. IC50 values for cytotoxicity were determined using XLift 4.2 as previously reported.^21

[1] = system: HIV-1 virus (IIIB strain); test: Anti-HIV-1 cytoprotection (CPE) assay in CEM-SS cells; assay type: cell-based; conditions: 1 μM; HIV-1 IIIB-infected CEM-SS cells
Experimental: To assess the corresponding impact of differential glycosylation upon antiviral activity, the entire set of compounds was subsequently tested in a single dose (10 μM) anti-HIV-1 assay against CEM-SS cells (i.e., CD4+ T lymphocytes) infected with the IIIB strain of HIV-1. Compound efficacy was determined by the percent increase of cytoprotective effect (CPE), which is prevention of intercellular virus replication, over untreated HIV-1-infected cells.
Both cells and virus were mixed with compound (10 μM & 1 μM for ABA1-5 and […] for all others) in triplicate in 96-well plates and incubated for six days at 37° C. Compound cytoprotection and cytotoxicity were evaluated using MTS tetrazolium dye (Promega Corp., Madison, Wis.) as previously reported.^23 Each assay plate used the following controls: cells only, cells/virus, cells/compound, compound only. The reverse transcriptase inhibitor AZT and protease inhibitor Indinavir were included as positive controls.

Row | Compound | improvement of cytotoxic activity over the parent natural product (human cancer cell lines) | cytotoxic potency compared to parent 1 (human cancer cell lines) | also measured
1 | C=C(C)[C@@H]1CC[C@]2(C(=O)O)CC[C@]3(C)[C@H](CC[C@@H]4[C@@]5(C)CC[C@H](NC(=O)CN(OC)C6OC[C@@H](O)[C@H](O)[C@H]6O)C(C)(C)[C@@H]5CC[C@]43C)[C@@H]12 (stereo partly drawn) [ABA5, (3S)-N-(N′-Methoxy-N′-D-xylosylglycyl)betulinic acid] | ~2 fold |  | potency improvement of amide-linked versus ester-linked neoglycoside (human cancer cell lines): ≤ 2 fold
2 | C=C(C)[C@@H]1CC[C@]2(C(=O)O)CC[C@]3(C)[C@H](CC[C@@H]4[C@@]5(C)CC[C@H](NC(=O)CNOC)C(C)(C)[C@@H]5CC[C@]43C)[C@@H]12 [compound 10, (3S)-N-(N′-Methoxyglycyl)aminobetulinic acid] |  | relatively similar potencies | increase in CPE [1]: no noticeable activity
3 | C=C(C)[C@@H]1CC[C@]2(C(=O)O)CC[C@]3(C)[C@H](CC[C@@H]4[C@@]5(C)CC[C@H](NC(=O)CN(OC)[C@@H]6O[C@H](CO)[C@@H](O)[C@@H](O)[C@@H]6O)C(C)(C)[C@@H]5CC[C@]43C)[C@@H]12 [ABA1, (3S)-N-(N′-Methoxy-N′-β-D-altrosylglycyl)betulinic acid] | ~2 fold |  | 
4 | C=C(C)[C@@H]1CC[C@]2(C(=O)O)CC[C@]3(C)C(CCC4[C@@]5(C)CC[C@H](OC(=O)CN(OC)[C@H]6OC[C@H](O)[C@@H](O)[C@@H]6O)C(C)(C)C5CC[C@]43C)C12 (stereo partly drawn) [BA32, (3S)-O-(N-Methoxy-N-β-L-xylosylglycyl)betulinic acid] |  | equipotent | 
5 | C=C(C)[C@@H]1CC[C@]2(C(=O)O)CC[C@]3(C)[C@H](CC[C@@H]4[C@@]5(C)CC[C@H](OC(=O)CN(OC)C6O[C@@H](C)[C@@H](O)[C@@H](O)[C@@H]6O)C(C)(C)[C@@H]5CC[C@]43C)[C@@H]12 (stereo partly drawn) [BA9, (3S)-O-(N-Methoxy-N-L-fucosylglycyl)betulinic acid] |  | equipotent | 
6 | C=C(C)[C@@H]1CC[C@]2(C(=O)O)CC[C@]3(C)C(CCC4[C@@]5(C)CC[C@H](OC(=O)CN(OC)C6O[C@@H](C)[C@H](O)[C@@H](O)[C@H]6O)C(C)(C)C5CC[C@]43C)C12 (stereo partly drawn) [BA27] |  |  | IC50 (human cancer cell lines; ester-linked BA series, 72 h incubation, cell line not specified / at least one cell line): ≥ 25 µM
7 | C=C(C)[C@@H]1CC[C@]2(C(=O)O)CC[C@]3(C)[C@H](CCC4[C@@]5(C)CC[C@H](OC(=O)CNOC)C(C)(C)C5CC[C@]43C)C12 (stereo partly drawn) [compound 7, (3S)-O-(N-Methoxyglycyl)betulinic acid] |  | relatively similar potencies | 
8 | C=C(C)[C@@H]1CC[C@]2(C(=O)O)CC[C@]3(C)[C@H](CC[C@@H]4[C@@]5(C)CC[C@H](OC(=O)CN(OC)[C@@H]6O[C@H](CO)[C@@H](O)[C@@H](O)[C@H]6O)C(C)(C)[C@@H]5CC[C@]43C)[C@@H]12 [BA1, (3S)-O-(N-Methoxy-N-β-D-allosylglycyl)betulinic acid] |  | equipotent | 
9 | C=C(C)[C@@H]1CC[C@]2(C(=O)O)CC[C@]3(C)[C@H](CC[C@@H]4[C@@]5(C)CC[C@H](NC(=O)CN(OC)C6OC[C@H](O)[C@H](O)[C@@H]6O)C(C)(C)[C@@H]5CC[C@]43C)[C@@H]12 (stereo partly drawn) [ABA4, (3S)-N-(N′-Methoxy-N′-L-ribosylglycyl)betulinic acid] | ~2 fold |  | potency improvement of amide-linked versus ester-linked neoglycoside (human cancer cell lines): ≥ 6 fold
